Assays:
mu opioid receptor = biological target: T1, mu opioid receptor (Rattus norvegicus, UniProt P33535); experiment: Rat Brain Mu Opioid Receptor Binding Assay; settings: rat forebrain membrane preparation; [3H]DAMGO, 25° C., 2.5 h
T1 construct: Following incubation with the mu selective peptide ligand, ˜0.8 nM [^3H]DAMGO; from tissue; host or cells: rat forebrain homogenate (male Wistar rats), particulate membrane preparation

delta opioid receptor = biological target: T2, delta opioid receptor (Rattus norvegicus, UniProt P33533); experiment: Rat Brain Delta Opioid Receptor Binding Assay; settings: rat forebrain membrane preparation; [3H]DPDPE or [3H]naltrindole, 25° C., 2.5 h
T2 construct: from tissue; host or cells: rat forebrain homogenate (male Wistar rats), particulate membrane preparation
T2 sequence (P33533 whole entry): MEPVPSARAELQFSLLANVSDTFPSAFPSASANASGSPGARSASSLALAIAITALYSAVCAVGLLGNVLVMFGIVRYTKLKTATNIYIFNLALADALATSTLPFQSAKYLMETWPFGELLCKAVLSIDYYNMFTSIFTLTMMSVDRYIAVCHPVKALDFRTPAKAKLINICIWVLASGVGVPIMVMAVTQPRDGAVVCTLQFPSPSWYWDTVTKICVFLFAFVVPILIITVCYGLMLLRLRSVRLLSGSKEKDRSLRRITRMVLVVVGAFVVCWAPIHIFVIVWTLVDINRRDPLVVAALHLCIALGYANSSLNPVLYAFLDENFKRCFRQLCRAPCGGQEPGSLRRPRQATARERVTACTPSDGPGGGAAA

T1 sequence (P33535 whole entry): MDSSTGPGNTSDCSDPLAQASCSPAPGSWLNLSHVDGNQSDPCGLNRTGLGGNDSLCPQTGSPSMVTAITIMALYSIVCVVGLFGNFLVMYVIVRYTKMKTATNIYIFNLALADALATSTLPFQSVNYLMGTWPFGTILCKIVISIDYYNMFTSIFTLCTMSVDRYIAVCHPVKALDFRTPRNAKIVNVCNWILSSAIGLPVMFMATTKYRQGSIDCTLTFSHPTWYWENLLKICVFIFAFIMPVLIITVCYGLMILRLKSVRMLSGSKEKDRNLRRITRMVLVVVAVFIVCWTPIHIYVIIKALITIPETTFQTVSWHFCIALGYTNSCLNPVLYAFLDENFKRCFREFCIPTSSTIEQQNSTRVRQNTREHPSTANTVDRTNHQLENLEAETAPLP

With `Brc1ccc2c(c1)Sc1ccccc1N2C1C[C@H]2CC[C@@H](C1)N2` (mixture of isomers) [Compound 4i, 10-(8-Aza-bicyclo[3.2.1]oct-3-yl)-3-bromo-10H-phenothiazine] the Ki (mu opioid receptor) was 6610 nM and the Ki (delta opioid receptor) was 881 nM.

With `CC(C)=CCN1[C@@H]2CC[C@H]1CC(N1c3ccccc3Sc3cc(-c4cccnc4)ccc31)C2` (mixture of isomers) [Compound 8i, 10-[8-(3-Methyl-but-2-enyl)-8-aza-bicyclo[3.2.1]oct-3-yl]-3-pyridin-3-yl-10H-phenothiazine] the Ki (mu opioid receptor) was 889 nM and the Ki (delta opioid receptor) was 444 nM.

`CC(=O)Nc1ccccc1-c1ccc2c(c1)Sc1ccccc1N2C1C[C@H]2CC[C@@H](C1)N2Cc1ccoc1` (mixture of isomers) [Compound 7i, N-{2-[10-(8-Furan-3-ylmethyl-8-aza-bicyclo[3.2.1]oct-3-yl)-10H-phenothiazin-3-yl]-phenyl}-acetamide] showed a Ki (mu opioid receptor) of 554 nM and a Ki (delta opioid receptor) of 123 nM.

In the case of `CN1C2CCC1CC(N1c3ccccc3Oc3cc(-c4noc(=O)[nH]4)ccc31)C2` (stereo not shown) [Compound 2h, 3-[10-(8-Methyl-8-aza-bicyclo[3.2.1]oct-3-yl)-10H-phenoxazin-3-yl]-4H-[1,2,4]oxadiazol-5-one], the Ki (mu opioid receptor) is reported as 2890 nM and the Ki (delta opioid receptor) is reported as 598 nM.

Molecule `O=c1[nH]c(-c2ccc3c(c2)Oc2ccccc2N3[C@H]2C[C@H]3CC[C@@H](C2)N3CCc2ccccc2)no1` [Compound 7d, Endo-3-[10-(8-Phenethyl-8-aza-bicyclo[3.2.1]oct-3-yl)-10H-phenoxazin-3-yl]-4H-[1,2,4]oxadiazol-5-one] has a Ki (mu opioid receptor) of 123 nM and a Ki (delta opioid receptor) of 2630 nM.

`c1csc(CN2[C@@H]3CC[C@H]2CC(N2c4ccccc4Sc4cc(-c5ccncc5)ccc42)C3)c1` (mixture of isomers) [Compound 12i, 3-Pyridin-4-yl-10-(8-thiophen-2-ylmethyl-8-aza-bicyclo[3.2.1]oct-3-yl)-10H-phenothiazine] gave a Ki (mu opioid receptor) of 1450 nM and a Ki (delta opioid receptor) of 491 nM.

In the case of `N#Cc1ccc2c(c1)Oc1ccccc1N2[C@H]1C[C@H]2CC[C@@H](C1)N2` [Compound 8b, Endo-10-(8-Aza-bicyclo[3.2.1]oct-3-yl)-10H-phenoxazine-3-carbonitrile], the Ki (mu opioid receptor) is reported as greater than 10000 nM and the Ki (delta opioid receptor) is reported as 1900 nM.

`COC(=O)c1ccc2c(c1)Oc1ccccc1N2C1CC2CCC(C1)N2C` (stereo not shown) [Compound 2a, 10-(8-Methyl-8-aza-bicyclo[3.2.1]oct-3-yl)-10H-phenoxazine-3-carboxylic acid methyl ester] showed a Ki (mu opioid receptor) of 5150 nM and a Ki (delta opioid receptor) of 697 nM.

`c1cncc(-c2ccc3c(c2)Sc2ccccc2N3C2C[C@H]3CC[C@@H](C2)N3Cc2ccoc2)c1` (mixture of isomers) [Compound 6i, 10-(8-Furan-3-ylmethyl-8-aza-bicyclo[3.2.1]oct-3-yl)-3-pyridin-3-yl-10H-phenothiazine] showed a Ki (mu opioid receptor) of 1060 nM and a Ki (delta opioid receptor) of 282 nM.

Work on `CC(=O)Nc1ccccc1-c1ccc2c(c1)Sc1ccccc1N2C1C[C@H]2CC[C@@H](C1)N2Cc1ncc[nH]1` (mixture of isomers) [Compound 15i, N-(2-{10-[8-(1H-Imidazol-2-ylmethyl)-8-aza-bicyclo[3.2.1]oct-3-yl]-10H-phenothiazin-3-yl}-phenyl)-acetamide] yielded a Ki (mu opioid receptor) of 169 nM and a Ki (delta opioid receptor) of 630 nM.

In the case of `C=CCN1[C@@H]2CC[C@H]1CC(N1c3ccccc3Sc3cc(-c4ccccc4NC(C)=O)ccc31)C2` (mixture of isomers) [Compound 13i, N-{2-[10-(8-Allyl-8-aza-bicyclo[3.2.1]oct-3-yl)-10H-phenothiazin-3-yl]-phenyl}-acetamide], the Ki (mu opioid receptor) is reported as 3740 nM and the Ki (delta opioid receptor) is reported as 552 nM.

Work on `CCN(CC)C(=O)c1ccc2c(c1)Oc1ccccc1N2[C@@H]1C[C@H]2CC[C@@H](C1)N2CCc1ccccc1` [Compound 3u, Exo-10-(8-Phenethyl-8-aza-bicyclo[3.2.1]oct-3-yl)-10H-phenoxazine-3-carboxylic acid diethylamide] yielded a Ki (delta opioid receptor) of 1360 nM.

In the case of `c1ccc2c(c1)Oc1cc(-c3ccncc3)ccc1N2[C@@H]1C[C@H]2CC[C@@H](C1)N2` [Compound 2m, Exo-10-(8-Aza-bicyclo[3.2.1]oct-3-yl)-3-pyridin-4-yl-10H-phenoxazine], the Ki (delta opioid receptor) is reported as 634 nM.

`c1ccc(CN2[C@@H]3CC[C@H]2CC(N2c4ccccc4Sc4cc(-c5cccnc5)ccc42)C3)nc1` (mixture of isomers) [Compound 9i, 3-Pyridin-3-yl-10-(8-pyridin-2-ylmethyl-8-aza-bicyclo[3.2.1]oct-3-yl)-10H-phenothiazine] was tested, and the Ki (mu opioid receptor) was 538 nM and the Ki (delta opioid receptor) was 649 nM.

`CN(CCc1ccccc1)C(=O)c1ccc2c(c1)Oc1ccccc1N2C1CC2CCC(C1)N2C` (stereo not shown) [Compound 6a, 10-(8-Methyl-8-aza-bicyclo[3.2.1]oct-3-yl)-10H-phenoxazine-3-carboxylic acid methyl-phenethyl-amide] showed a Ki (mu opioid receptor) of 819 nM and a Ki (delta opioid receptor) of 575 nM.

In the case of `c1ccc(CCN2[C@@H]3CC[C@H]2C[C@@H](N2c4ccccc4Oc4cc(-c5ccncc5)ccc42)C3)cc1` [Compound 3k, Endo-10-(8-Phenethyl-8-aza-bicyclo[3.2.1]oct-3-yl)-3-pyridin-4-yl-10H-phenoxazine], the Ki (delta opioid receptor) is reported as 3390 nM.

Molecule `CC(=O)Nc1ccccc1-c1ccc2c(c1)Sc1ccccc1N2C1C[C@H]2CC[C@@H](C1)N2C` (mixture of isomers) [Compound 16i, N-{2-[10-(8-Methyl-8-aza-bicyclo[3.2.1]oct-3-yl)-10H-phenothiazin-3-yl]-phenyl}-acetamide] has a Ki (mu opioid receptor) of 2650 nM and a Ki (delta opioid receptor) of 1450 nM.

With `CC(=O)Nc1ccccc1-c1ccc2c(c1)Sc1ccccc1N2C1C[C@H]2CC[C@@H](C1)N2CCc1ccccc1` (mixture of isomers) [Compound 14i, N-{2-[10-(8-Phenethyl-8-aza-bicyclo[3.2.1]oct-3-yl)-10H-phenothiazin-3-yl]-phenyl}-acetamide] the Ki (mu opioid receptor) was 599 nM and the Ki (delta opioid receptor) was 1600 nM.

For `c1ccc(CCN2[C@@H]3CC[C@H]2CC(N2c4ccccc4Oc4cc(-c5nnn[nH]5)ccc42)C3)cc1` (stereo partly drawn) [Compound 7b, Endo-10-(8-Phenethyl-8-aza-bicyclo[3.2.1]oct-3-yl)-3-(1H-tetrazol-5-yl)-10H-phenoxazine], the Ki (mu opioid receptor) was 288 nM and the Ki (delta opioid receptor) was 5480 nM.

`N#Cc1ccc2c(c1)Sc1ccccc1N2C1C[C@H]2CC[C@@H](C1)N2` (mixture of isomers) [Compound 1aa, 10-(8-Aza-bicyclo[3.2.1]oct-3-yl)-10H-phenothiazine-3-carbonitrile] was tested, and the Ki (delta opioid receptor) was 931 nM.

`c1ccc(CN2[C@@H]3CC[C@H]2C[C@H](N2c4ccccc4Oc4cc(-c5cccnc5)ccc42)C3)nc1` [Compound 5l, Exo-3-Pyridin-3-yl-10-(8-pyridin-2-ylmethyl-8-aza-bicyclo[3.2.1]oct-3-yl)-10H-phenoxazine] was tested, and the Ki (delta opioid receptor) was 539 nM.

`c1ccc(CN2[C@@H]3CC[C@H]2C[C@H](N2c4ccccc4Oc4cc(-c5ccncc5)ccc42)C3)nc1` [Compound 4m, Exo-3-Pyridin-4-yl-10-(8-pyridin-2-ylmethyl-8-aza-bicyclo[3.2.1]oct-3-yl)-10H-phenoxazine] showed a Ki (delta opioid receptor) of 869 nM.

For `c1cncc(-c2ccc3c(c2)Oc2ccccc2N3[C@H]2C[C@H]3CC[C@@H](C2)N3Cc2cccs2)c1` [Compound 9j, Endo-3-Pyridin-3-yl-10-(8-thiophen-2-ylmethyl-8-aza-bicyclo[3.2.1]oct-3-yl)-10H-phenoxazine], the Ki (delta opioid receptor) was 11900 nM.

`CC(=O)Nc1ccccc1-c1ccc2c(c1)Oc1ccccc1N2[C@H]1C[C@H]2CC[C@@H](C1)N2Cc1cccs1` [Compound 4x, Endo-N-{2-[10-(8-Thiophen-2-ylmethyl-8-aza-bicyclo[3.2.1]oct-3-yl)-10H-phenoxazin-3-yl]-phenyl}-acetamide] was tested, and the Ki (delta opioid receptor) was 161 nM.

With `CC(C)=CCN1[C@@H]2CC[C@H]1CC(N1c3ccccc3Sc3cc(-c4ccncc4)ccc31)C2` (mixture of isomers) [Compound 10i, 10-[8-(3-Methyl-but-2-enyl)-8-aza-bicyclo[3.2.1]oct-3-yl]-3-pyridin-4-yl-10H-phenothiazine] the Ki (mu opioid receptor) was 317 nM and the Ki (delta opioid receptor) was 949 nM.

`c1cncc(-c2ccc3c(c2)Oc2ccccc2N3[C@@H]2C[C@H]3CC[C@@H](C2)N3)c1` [Compound 3l] showed a Ki (delta opioid receptor) of 729 nM.
